Experimental data reported in patent publication US5631222A, “Endothelin-antagonizing peptide” (Kyowa Hakko Kogyo Co., Ltd., priority 1993, dated 1997).
Non-standard residues stand in square brackets, D forms with d. Residues, ends and D or L forms follow the SMILES beside them. NMeI = CC[C@H](C)[C@H](NC)C(=O)O; 2Thi = N[C@@H](Cc1cccs1)C(=O)O; NMeL = CN[C@@H](CC(C)C)C(=O)O; Phg = N[C@H](C(=O)O)c1ccccc1; Nle = CCCC[C@H](N)C(=O)O; Nva = CCC[C@H](N)C(=O)O; Abu = CC[C@H](N)C(=O)O

Target: T1, endothelin receptor (Bos taurus, UniProt P28088)
T1 construct: the suspension was used as a membrane fraction liquid; from tissue; host or cells: bovine cerebellum membrane fraction
T1 sequence (P28088 27-441): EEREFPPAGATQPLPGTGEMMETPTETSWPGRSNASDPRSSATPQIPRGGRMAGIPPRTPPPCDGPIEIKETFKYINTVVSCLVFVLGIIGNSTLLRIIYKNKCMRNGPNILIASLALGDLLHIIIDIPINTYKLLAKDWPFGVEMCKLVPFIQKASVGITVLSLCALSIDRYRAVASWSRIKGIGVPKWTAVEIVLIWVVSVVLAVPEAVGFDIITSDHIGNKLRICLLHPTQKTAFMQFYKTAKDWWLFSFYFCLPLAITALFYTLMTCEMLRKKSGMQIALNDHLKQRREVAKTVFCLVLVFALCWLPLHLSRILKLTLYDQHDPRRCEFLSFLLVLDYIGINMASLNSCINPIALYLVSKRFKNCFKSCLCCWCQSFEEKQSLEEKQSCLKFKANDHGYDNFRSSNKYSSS
Assay: Endothelin receptor-antagonizing activity: inhibition of 125I-endothelin-1 binding to bovine cerebellum membrane fraction
Settings: 125I-Endothelin-1, bovine cerebellum membrane fraction, 25° C. for 2 hours; read-out: IC50: Concentration causing 50% inhibition of endothelin1 binding
Experimental: Bovine cerebellum tissue was homogenized at 4° C. by using POLYTRON (type PT10/35, manufactured by Kinematic Gmbh Co.) in a buffer solution A (1 mM NaHCO3, 5 mM ethylenediaminetetraacetic acid, 5 μg/ml leupeptin, 5 μg/ml pepstatin A, 40 μM phenylmethylsulfonyl fluoride, pH 8.3).
The obtained suspension was centrifuged for 10 minutes at 8,000 G and 4° C., and the resulting supernatant was centrifuged for 60 minutes at 40,000 G and 4° C. to obtain pellets. The obtained pellets were suspended in a buffer solution A and again centrifuged for 60 minutes at 40,000 G and 4° C. The resulting solid substance was prepared as a suspension containing 2 mg/ml of protein, and the suspension was used as a membrane fraction liquid. […] These mixtures were incubated at 25° C. for 2 hours, and then filtered with a GF/B glass filter (produced by Whatman Co.). […] The inhibition ratio against endothelin receptor binding activity was calculated according to the following equation:
Inhibition ratio (%)=(C-A/C-B)×100
B: Radioactivity in the presence of unlabelled endothelin-1
C: Radioactivity in the absence of both of the compound shown in Table 2 and unlabelled endothelin-1

Structure (SMILES) | IC50
CC[C@H](NC(=O)[C@@H](NC(=O)[C@H](CC(C)C)NC(=O)[C@H](Cc1c[nH]cn1)NC(=O)[C@H](C)NC(=O)[C@H](Cc1ccccc1)NC(=O)[C@H](Cc1ccc(O)cc1)NC(=O)[C@@H](NC(=O)[C@H](Cc1c[nH]c2ccccc12)NC(=O)[C@H](CC(=O)O)NC(=O)[C@@H]1CCCN1C(=O)[C@H](C)NC(=O)[C@@H](NC(=O)CNC(=O)[C@H](Cc1c[nH]cn1)NC(=O)[C@H](Cc1c[nH]c2ccccc12)NC(=O)[C@H](CC(N)=O)NC(=O)CN)[C@@H](C)O)C(C)C)[C@@H](C)O)C(=O)N[C@H](C(=O)N[C@@H](Cc1c[nH]c2ccccc12)C(=O)O)[C@@H](C)CC [Compound 15, HGlyAsnTrpHisGlyThrAlaProAspTrpValTyrPheAlaHisLeuThrAbuIleTrpOH] (H-GNWHGTAPDWVYFAHLT[Abu]IW-OH) | 0.11 nM
CC[C@H](C)[C@H](NC(=O)[C@H](CC(C)C)N(C)C(=O)[C@@H](NC(=O)[C@H](CC(C)C)NC(=O)[C@H](Cc1c[nH]cn1)NC(=O)[C@H](C)NC(=O)[C@H](Cc1ccccc1)NC(=O)[C@H](Cc1ccc(O)cc1)NC(=O)[C@@H](NC(=O)[C@H](Cc1c[nH]c2ccccc12)NC(=O)[C@H](CC(=O)O)NC(=O)[C@@H]1CCCN1C(=O)[C@H](C)NC(=O)[C@@H](NC(=O)CNC(=O)[C@H](Cc1c[nH]cn1)NC(=O)[C@H](Cc1c[nH]c2ccccc12)NC(=O)[C@H](CC(N)=O)NC(=O)CN)[C@@H](C)O)C(C)C)[C@@H](C)O)C(=O)N[C@@H](Cc1c[nH]c2ccccc12)C(=O)O [Compound 23, HGlyAsnTrpHisGlyThrAlaProAspTrpValTyrPheAlaHisLeuThrMeLeuIleTrpOH] (H-GNWHGTAPDWVYFAHLT[NMeL]IW-OH) | 54 nM
CC[C@H](C)[C@H](NC(=O)[C@H]([C@@H](C)CC)N(C)C(=O)[C@@H](NC(=O)[C@H](CC(C)C)NC(=O)[C@H](Cc1c[nH]cn1)NC(=O)[C@H](C)NC(=O)[C@H](Cc1ccccc1)NC(=O)[C@H](Cc1ccc(O)cc1)NC(=O)[C@@H](NC(=O)[C@H](Cc1c[nH]c2ccccc12)NC(=O)[C@H](CC(=O)O)NC(=O)[C@@H]1CCCN1C(=O)[C@H](C)NC(=O)[C@@H](NC(=O)CNC(=O)[C@H](Cc1c[nH]cn1)NC(=O)[C@H](Cc1c[nH]c2ccccc12)NC(=O)[C@H](CC(N)=O)NC(=O)CN)[C@@H](C)O)C(C)C)[C@@H](C)O)C(=O)N[C@@H](Cc1c[nH]c2ccccc12)C(=O)O [Compound 24, HGlyAsnTrpHisGlyThrAlaProAspTrpValTyrPheAlaHisLeuThrMeIleIleTrpOH] (H-GNWHGTAPDWVYFAHLT[NMeI]IW-OH) | 50 nM
CC[C@H](C)[C@H](NC(=O)[C@@H](NC(=O)[C@@H](NC(=O)[C@H](CC(C)C)NC(=O)[C@H](Cc1c[nH]cn1)NC(=O)[C@H](C)NC(=O)[C@H](Cc1ccccc1)NC(=O)[C@H](Cc1ccc(O)cc1)NC(=O)[C@@H](NC(=O)[C@H](Cc1c[nH]c2ccccc12)NC(=O)[C@H](CC(=O)O)NC(=O)[C@@H]1CCCN1C(=O)[C@H](C)NC(=O)[C@@H](NC(=O)CNC(=O)[C@H](Cc1c[nH]cn1)NC(=O)[C@H](Cc1c[nH]c2ccccc12)NC(=O)[C@H](CC(N)=O)NC(=O)CN)[C@@H](C)O)C(C)C)[C@@H](C)O)c1ccccc1)C(=O)N[C@@H](Cc1c[nH]c2ccccc12)C(=O)O [Compound 25, HGlyAsnTrpHisGlyThrAlaProAspTrpValTyrPheAlaHisLeuThrPhgIleTrpOH] (H-GNWHGTAPDWVYFAHLT[Phg]IW-OH) | 0.58 nM
CCCC[C@H](NC(=O)[C@@H](NC(=O)[C@H](CC(C)C)NC(=O)[C@H](Cc1c[nH]cn1)NC(=O)[C@H](C)NC(=O)[C@H](Cc1ccccc1)NC(=O)[C@H](Cc1ccc(O)cc1)NC(=O)[C@@H](NC(=O)[C@H](Cc1c[nH]c2ccccc12)NC(=O)[C@H](CC(=O)O)NC(=O)[C@@H]1CCCN1C(=O)[C@H](C)NC(=O)[C@@H](NC(=O)CNC(=O)[C@H](Cc1c[nH]cn1)NC(=O)[C@H](Cc1c[nH]c2ccccc12)NC(=O)[C@H](CC(N)=O)NC(=O)CN)[C@@H](C)O)C(C)C)[C@@H](C)O)C(=O)N[C@H](C(=O)N[C@@H](Cc1c[nH]c2ccccc12)C(=O)O)[C@@H](C)CC [Compound 26, HGlyAsnTrpHisGlyThrAlaProAspTrpValTyrPheAlaHisLeuThrNleIleTrpOH] (H-GNWHGTAPDWVYFAHLT[Nle]IW-OH) | 0.63 nM
CC[C@H](C)[C@H](NC(=O)[C@H](Cc1cccs1)NC(=O)[C@@H](NC(=O)[C@H](CC(C)C)NC(=O)[C@H](Cc1c[nH]cn1)NC(=O)[C@@H](C)NC(=O)[C@H](Cc1ccccc1)NC(=O)[C@H](Cc1ccc(O)cc1)NC(=O)[C@@H](NC(=O)[C@H](Cc1c[nH]c2ccccc12)NC(=O)[C@H](CC(=O)O)NC(=O)[C@@H]1CCCN1C(=O)[C@H](C)NC(=O)[C@@H](NC(=O)CNC(=O)[C@H](Cc1c[nH]cn1)NC(=O)[C@H](Cc1c[nH]c2ccccc12)NC(=O)[C@H](CC(N)=O)NC(=O)CN)[C@@H](C)O)C(C)C)[C@@H](C)O)C(=O)N[C@@H](Cc1c[nH]c2ccccc12)C(=O)O [Compound 27, HGlyAsnTrpHisGlyThrAlaProAspTrpValTyrPheD-AlaHisLeuThrThiIleTrpOH] (H-GNWHGTAPDWVYF[dA]HLT[2Thi]IW-OH) | 4.9 nM
CC[C@H](C)[C@H](NC(=O)[C@H](Cc1cccs1)NC(=O)[C@@H](NC(=O)[C@H](CC(C)C)NC(=O)[C@@H](Cc1c[nH]c2ccccc12)NC(=O)[C@H](C)NC(=O)[C@H](Cc1ccccc1)NC(=O)[C@H](Cc1ccc(O)cc1)NC(=O)[C@@H](NC(=O)[C@H](Cc1c[nH]c2ccccc12)NC(=O)[C@H](CC(=O)O)NC(=O)[C@@H]1CCCN1C(=O)[C@H](C)NC(=O)[C@@H](NC(=O)CNC(=O)[C@H](Cc1c[nH]cn1)NC(=O)[C@H](Cc1c[nH]c2ccccc12)NC(=O)[C@H](CC(N)=O)NC(=O)CN)[C@@H](C)O)C(C)C)[C@@H](C)O)C(=O)N[C@@H](Cc1c[nH]c2ccccc12)C(=O)O [Compound 28, HGlyAsnTrpHisGlyThrAlaProAspTrpValTyrPheAlaD-TrpLeuThrThiIleTrpOH] (H-GNWHGTAPDWVYFA[dW]LT[2Thi]IW-OH) | 89 nM
CCC[C@H](NC(=O)[C@H](Cc1c[nH]cn1)NC(=O)[C@H](C)NC(=O)[C@H](Cc1ccccc1)NC(=O)[C@H](Cc1ccc(O)cc1)NC(=O)[C@@H](NC(=O)[C@H](Cc1c[nH]c2ccccc12)NC(=O)[C@H](CC(=O)O)NC(=O)[C@@H]1CCCN1C(=O)[C@H](C)NC(=O)[C@@H](NC(=O)CNC(=O)[C@H](Cc1c[nH]cn1)NC(=O)[C@H](Cc1c[nH]c2ccccc12)NC(=O)[C@H](CC(N)=O)NC(=O)CN)[C@@H](C)O)C(C)C)C(=O)N[C@H](C(=O)N[C@@H](Cc1cccs1)C(=O)N[C@H](C(=O)N[C@@H](Cc1c[nH]c2ccccc12)C(=O)O)[C@@H](C)CC)[C@@H](C)O [Compound 29, HGlyAsnTrpHisGlyThrAlaProAspTrpValTyrPheAlaHisNvaThrThiIleTrpOH] (H-GNWHGTAPDWVYFAH[Nva]T[2Thi]IW-OH) | 0.37 nM
CC[C@H](C)[C@H](NC(=O)[C@H](Cc1cccs1)NC(=O)CNC(=O)[C@H](CC(C)C)NC(=O)[C@H](Cc1c[nH]cn1)NC(=O)[C@H](C)NC(=O)[C@H](Cc1ccccc1)NC(=O)[C@H](Cc1ccc(O)cc1)NC(=O)[C@@H](NC(=O)[C@H](Cc1c[nH]c2ccccc12)NC(=O)[C@H](CC(=O)O)NC(=O)[C@@H]1CCCN1C(=O)[C@H](C)NC(=O)[C@@H](NC(=O)CNC(=O)[C@H](Cc1c[nH]cn1)NC(=O)[C@H](Cc1c[nH]c2ccccc12)NC(=O)[C@H](CC(N)=O)NC(=O)CN)[C@@H](C)O)C(C)C)C(=O)N[C@@H](Cc1c[nH]c2ccccc12)C(=O)O [Compound 30, HGlyAsnTrpHisGlyThrAlaProAspTrpValTyrPheAlaHisLeuGlyThiIleTrpOH] (H-GNWHGTAPDWVYFAHLG[2Thi]IW-OH) | 170 nM
CC[C@@H](C)[C@@H](NC(=O)[C@H](Cc1cccs1)NC(=O)[C@@H](NC(=O)[C@H](CC(C)C)NC(=O)[C@H](Cc1c[nH]cn1)NC(=O)[C@H](C)NC(=O)[C@H](Cc1ccccc1)NC(=O)[C@H](Cc1ccc(O)cc1)NC(=O)[C@@H](NC(=O)[C@H](Cc1c[nH]c2ccccc12)NC(=O)[C@H](CC(=O)O)NC(=O)[C@@H]1CCCN1C(=O)[C@H](C)NC(=O)[C@@H](NC(=O)CNC(=O)[C@H](Cc1c[nH]cn1)NC(=O)[C@H](Cc1c[nH]c2ccccc12)NC(=O)[C@H](CC(N)=O)NC(=O)CN)[C@@H](C)O)C(C)C)[C@@H](C)O)C(=O)N[C@@H](Cc1c[nH]c2ccccc12)C(=O)O [Compound 31, HGlyAsnTrpHisGlyThrAlaProAspTrpValTyrPheAlaHisLeuThrThiD-IleTrpOH] (H-GNWHGTAPDWVYFAHLT[2Thi][dI]W-OH) | 210 nM
